Source: PubChem BioAssay AID248 (DTP/NCI, 2004)
Inconclusive results and toxic doses are left out. Rule as the data show it: active = T/C of 150% or more; inactive = T/C below 125%.

System: L1210 leukemia ip in BDF1 mice, survival T/C
Experiment: NCI In Vivo Anticancer Drug Screen. Data for tumor model L1210 Leukemia (intraperitoneal) in B6D2F1 (BDF1) mice
Conditions: endpoint: mean survival time, higher = longer survival
In short: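 Tumor was transplanted into mice, which were then dosed with test compound or vehicle alone. Survival was recorded for each group, and the treated figure was expressed relative to the control figure.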

[1] = dose: 100.0 mg/kg/injection, schedule: Q04DX003 (ip), vehicle: Klucel (hydroxypropylcellulose) (HPC)
[2] = dose: 200.0 mg/kg/injection, schedule: Q04DX003 (ip), vehicle: Klucel (hydroxypropylcellulose) (HPC)
[3] = dose: 300.0 mg/kg/injection, schedule: Q01DX009 (ip), vehicle: Klucel (hydroxypropylcellulose) (HPC)
[4] = dose: 100.0 mg/kg/injection, schedule: Q04DX003 (ip), vehicle: saline with Tween-80
[5] = dose: 200.0 mg/kg/injection, schedule: Q04DX003 (ip), vehicle: saline with Tween-80
[6] = dose: 400.0 mg/kg/injection, schedule: Q04DX003 (ip), vehicle: Klucel (hydroxypropylcellulose) (HPC)
[7] = dose: 100.0 mg/kg/injection, schedule: Q01DX001 (ip), vehicle: saline
[8] = dose: 200.0 mg/kg/injection, schedule: Q01DX001 (ip), vehicle: saline
[9] = dose: 100.0 mg/kg/injection, schedule: Q01DX009 (ip), vehicle: Klucel (hydroxypropylcellulose) (HPC)
[10] = dose: 200.0 mg/kg/injection, schedule: Q01DX009 (ip), vehicle: Klucel (hydroxypropylcellulose) (HPC)
[11] = dose: 50.0 mg/kg/injection, schedule: Q01DX009 (ip), vehicle: Klucel (hydroxypropylcellulose) (HPC)
[12] = dose: 100.0 mg/kg/injection, schedule: Q01DX001 (ip), vehicle: Klucel (hydroxypropylcellulose) (HPC)
[13] = dose: 200.0 mg/kg/injection, schedule: Q01DX001 (ip), vehicle: Klucel (hydroxypropylcellulose) (HPC)
[14] = dose: 400.0 mg/kg/injection, schedule: Q01DX001 (ip), vehicle: Klucel (hydroxypropylcellulose) (HPC)
[15] = dose: 25.0 mg/kg/injection, schedule: Q04DX003 (ip), vehicle: saline
[16] = dose: 50.0 mg/kg/injection, schedule: Q04DX003 (ip), vehicle: saline
[17] = dose: 100.0 mg/kg/injection, schedule: Q04DX003 (ip), vehicle: saline

Measured: T/C

Nc1cc(S(=O)O)c2cccnc2c1O
inactive: dose: 75.0 mg/kg/injection, schedule: Q01DX009 (ip), vehicle: Klucel (hydroxypropylcellulose) (HPC) 88 % of control | [1] 97 % of control | dose: 150.0 mg/kg/injection, schedule: Q01DX009 (ip), vehicle: Klucel (hydroxypropylcellulose) (HPC) 108 % of control | [2] 95 % of control | [3] 93 % of control

N#Cc1oc2ccccc2c1OC(=O)C(F)(F)F
inactive: [4] 100 % of control | [5] 95 % of control

CCCOP(=S)(N1CC1)N1CC1
inactive: dose: 44.0 mg/kg/injection, schedule: Q01DX001 (ip), vehicle: saline 114 % of control

N#CC(C#N)=C1SCS1
inactive: dose: 6.25 mg/kg/injection, schedule: Q04DX002 (ip), vehicle: saline with Tween-80 103 % of control | dose: 12.5 mg/kg/injection, schedule: Q04DX002 (ip), vehicle: saline with Tween-80 111 % of control | dose: 25.0 mg/kg/injection, schedule: Q04DX002 (ip), vehicle: saline with Tween-80 114 % of control

COc1ccc(C2c3cc(OC)c(OC)cc3CC3C(=O)OCC32)cc1OC (centres undefined)
inactive: [1] 98 % of control | [2] 93 % of control | [6] 93 % of control

CC(=O)Oc1ccc2nccc(C)c2c1
inactive: [7] 100 % of control | [8] 100 % of control | dose: 400.0 mg/kg/injection, schedule: Q01DX001 (ip), vehicle: saline 100 % of control

COc1ccc(C(C)=O)cc1CCCOC(C)=O
inactive: dose: 100.0 mg/kg/injection, schedule: Q01DX001 (ip), vehicle: carboxymethylcellulose (CMC) 95 % of control | dose: 200.0 mg/kg/injection, schedule: Q01DX001 (ip), vehicle: carboxymethylcellulose (CMC) 106 % of control | dose: 400.0 mg/kg/injection, schedule: Q01DX001 (ip), vehicle: carboxymethylcellulose (CMC) 101 % of control

CC[N+](CC)(CC)CCCCCCCCCC[N+](CC)(CC)CC
inactive: dose: 0.19 mg/kg/injection, schedule: Q01DX009 (ip), vehicle: water 100 % of control | dose: 0.39 mg/kg/injection, schedule: Q01DX009 (ip), vehicle: water 95 % of control | dose: 0.78 mg/kg/injection, schedule: Q01DX009 (ip), vehicle: water 90 % of control | dose: 0.78 mg/kg/injection, schedule: Q04DX003 (ip), vehicle: saline 103 % of control

COc1ccc(NC(=O)Nc2cc(C)ccc2C)cc1
inactive: [9] 89 % of control | [1] 93 % of control | [10] 86 % of control | [2] 93 % of control | dose: 400.0 mg/kg/injection, schedule: Q01DX009 (ip), vehicle: Klucel (hydroxypropylcellulose) (HPC) 92 % of control | [6] 87 % of control

O=C(O)C(c1ccccc1)C1CCCC1 (centres undefined)
inactive: dose: 50.0 mg/kg/injection, schedule: Q01DX009 (ip), vehicle: saline with Tween-80 102 % of control | dose: 100.0 mg/kg/injection, schedule: Q01DX009 (ip), vehicle: saline with Tween-80 105 % of control | [1] 98 % of control | dose: 200.0 mg/kg/injection, schedule: Q01DX009 (ip), vehicle: saline with Tween-80 100 % of control | [2] 100 % of control | [6] 98 % of control

NC(Cc1cnc(N=Nc2ccc(S(N)(=O)=O)cc2)[nH]1)C(=O)O (centres undefined)
inactive: [11] 100 % of control | [9] 93 % of control | [10] 93 % of control

CC(CP(c1ccccc1)c1ccccc1)(CP(c1ccccc1)c1ccccc1)CP(c1ccccc1)c1ccccc1
inactive: [12] 97 % of control | [1] 111 % of control | [13] 87 % of control | [2] 105 % of control | [14] 87 % of control | [6] 90 % of control

ClCCOCC1CO1 (centres undefined)
inactive: [15] 92 % of control | [16] 88 % of control | [17] 97 % of control

Clc1ccccc1C(CI)c1ccccc1Cl
inactive: dose: 5.0 mg/kg/injection, schedule: Q01DX001 (ip), vehicle: other 98 % of control | dose: 10.0 mg/kg/injection, schedule: Q01DX001 (ip), vehicle: other 98 % of control | dose: 20.0 mg/kg/injection, schedule: Q01DX001 (ip), vehicle: other 98 % of control | dose: 40.0 mg/kg/injection, schedule: Q01DX001 (ip), vehicle: other 100 % of control | dose: 80.0 mg/kg/injection, schedule: Q01DX001 (ip), vehicle: other 100 % of control

CC(C)n1cnc2nc[nH]c2c1=S
inactive: dose: 25.0 mg/kg/injection, schedule: Q01DX001 (ip), vehicle: Klucel (hydroxypropylcellulose) (HPC) 91 % of control | dose: 25.0 mg/kg/injection, schedule: Q04DX003 (ip), vehicle: Klucel (hydroxypropylcellulose) (HPC) 95 % of control | dose: 50.0 mg/kg/injection, schedule: Q01DX001 (ip), vehicle: Klucel (hydroxypropylcellulose) (HPC) 95 % of control | dose: 50.0 mg/kg/injection, schedule: Q04DX003 (ip), vehicle: Klucel (hydroxypropylcellulose) (HPC) 102 % of control | [12] 98 % of control | [1] 92 % of control

CC(=O)Oc1ccccc1C1SCSCS1
inactive: [12] 100 % of control | [13] 100 % of control | [14] 94 % of control

CC1C(C)(C)P(=O)(OCCOP2(=O)C(C)(C)C(C)C2(C)C)C1(C)C (centres undefined)
inactive: [17] 100 % of control | dose: 200.0 mg/kg/injection, schedule: Q04DX003 (ip), vehicle: saline 94 % of control

CCOC(=O)/C=C(/Nc1ccc(S(=O)(=O)F)cc1)c1ccccc1
inactive: [12] 104 % of control | [13] 100 % of control | [14] 98 % of control

O=c1cc(CO)occ1O.O=c1cc(CO)occ1O.[O]=[V]
inactive: dose: 4.0 mg/kg/injection, schedule: Q01DX015 (ip), vehicle: carboxymethylcellulose (CMC) 101 % of control | dose: 8.0 mg/kg/injection, schedule: Q01DX015 (ip), vehicle: carboxymethylcellulose (CMC) 105 % of control | dose: 12.5 mg/kg/injection, schedule: Q01DX009 (ip), vehicle: saline 87 % of control | dose: 12.5 mg/kg/injection, schedule: Q04DX003 (ip), vehicle: saline 92 % of control | dose: 16.0 mg/kg/injection, schedule: Q01DX015 (ip), vehicle: carboxymethylcellulose (CMC) 106 % of control | dose: 25.0 mg/kg/injection, schedule: Q01DX009 (ip), vehicle: saline 92 % of control | [15] 91 % of control | [16] 102 % of control

CC(=O)c1cccnc1
inactive: dose: 50.0 mg/kg/injection, schedule: Q01DX001 (ip), vehicle: saline 104 % of control | [7] 91 % of control | [8] 93 % of control

CCOC(=O)c1ccc(NC(=O)Nc2cc(OC)c(Cl)cc2OC)cc1
inactive: dose: 100.0 mg/kg/injection, schedule: Q01DX001 (ip), vehicle: saline with Tween-80 93 % of control | dose: 100.0 mg/kg/injection, schedule: Q04DX002 (ip), vehicle: saline with Tween-80 97 % of control | dose: 200.0 mg/kg/injection, schedule: Q01DX001 (ip), vehicle: saline with Tween-80 101 % of control | dose: 200.0 mg/kg/injection, schedule: Q04DX002 (ip), vehicle: saline with Tween-80 100 % of control | dose: 400.0 mg/kg/injection, schedule: Q01DX001 (ip), vehicle: saline with Tween-80 88 % of control | dose: 400.0 mg/kg/injection, schedule: Q04DX002 (ip), vehicle: saline with Tween-80 97 % of control

CSCCO
inactive: dose: 100.0 mg/kg/injection, schedule: Q01DX009 (ip), vehicle: saline 89 % of control | dose: 100.0 mg/kg/injection, schedule: Q04DX003 (ip), vehicle: saline sonified 102 % of control | dose: 200.0 mg/kg/injection, schedule: Q01DX009 (ip), vehicle: saline 100 % of control | dose: 200.0 mg/kg/injection, schedule: Q04DX003 (ip), vehicle: saline sonified 116 % of control | dose: 400.0 mg/kg/injection, schedule: Q01DX009 (ip), vehicle: saline 96 % of control | dose: 400.0 mg/kg/injection, schedule: Q04DX003 (ip), vehicle: saline sonified 98 % of control

CCOC(=O)c1[nH]c(C)c(CCC(=O)OC)c1C
inactive: [11] 103 % of control | [12] 95 % of control | [9] 107 % of control | [13] 93 % of control | [3] 100 % of control | [14] 95 % of control

CC(/C=C\c1cccc([N+](=O)[O-])c1)=N\NC(=O)c1ccncc1
inactive: [4] 93 % of control | [5] 101 % of control | dose: 400.0 mg/kg/injection, schedule: Q04DX003 (ip), vehicle: saline with Tween-80 96 % of control
